Source: patent US10208083B2 (priority 2015, dated 2019)
Marks after values point to notes of the source that are not given here.

Tests used:
[1] = system: UWB1.289; experiment: cells; type: cell-based, human; set-up: TGI: unit not given here; details: for GI50 / IC50: Homo sapiens, UWB1289, 48 h
[2] = system: OVCAR-3; experiment: cells; type: cell-based, human; set-up: TGI: unit not given here; details: for GI50 / IC50: Homo sapiens, OVCAR-3, 48 h
[3] = system: MOLT-4; experiment: cells; type: cell-based, human; set-up: TGI: unit not given here; details: for GI50 / IC50: Homo sapiens, MOLT-4, 48 h
[4] = system: K-562; experiment: cells; type: cell-based, human; set-up: TGI: unit not given here; details: for GI50 / IC50: Homo sapiens, K562, 48 h
[5] = in vivo; details: female, C57Bl/6, mouse, ip
[6] = system: murine P388 lymphocytic leukemia; set-up: species or system mice; details: mouse, in vivo, ip
[7] = system: MCF-7; experiment: cells; type: cell-based, human; set-up: TGI: unit not given here; details: for GI50 / IC50: Homo sapiens, MCF7, 48 h
[8] = system: C57Bl/6 mice; details: female, C57Bl/6, mouse, in vivo, ip
[9] = system: UWB1.289 + BRCA1; experiment: cells; type: cell-based, human; set-up: TGI: unit not given here; details: for GI50 / IC50: Homo sapiens, UWB1289, 48 h
[10] = system: SKOV-3; experiment: cells; type: cell-based, human; set-up: TGI: unit not given here; details: for GI50 / IC50: Homo sapiens, SK-OV-3, 48 h
[11] = system: T-47D; experiment: cells; type: cell-based, human; set-up: TGI: unit not given here; details: for GI50 / IC50: Homo sapiens, T47D, 48 h
[12] = system: SCOV-3 human ovarian cancer; details: in vivo
[13] = system: PC-3; experiment: cells; type: cell-based, human; set-up: TGI: unit not given here; details: for GI50 / IC50: Homo sapiens, PC-3, 48 h

SMILES | TGI [1] | GI50 [1] [µM] | IC50 [1] [µM] | TGI [2] | GI50 [2] [µM] | IC50 [2] [µM] | TGI [3] | GI50 [3] [µM] | IC50 [3] [µM] | TGI [4] | GI50 [4] [µM] | IC50 [4] [µM] | LD50 [5] [mg/kg] | Cures [6] | MST ± SD [6] [days] | T/C % [6] | TGI [7] | GI50 [7] [µM] | IC50 [7] [µM] | LD10 [8] [mg/kg] | other results
C[C@]12CC[C@H]3[C@@H](CCC4=CC(=O)NCC[C@@]43C)[C@@H]1CC[C@@H]2OC(=O)CCOc1ccc(N(CCCl)CCCl)cc1 [Compound 3] | 8 | 3 | 20 | 32 | 21 | 42 | 27 | 3 | 65 | 30 | 3 | 71 | 150 | 0/6 | 39 | 433* % | 38 | 17 | 70 | 130 | TGI [9]: 25; GI50 [9]: 12 µM; IC50 [9]: 40 µM; TGI [10]: 52; GI50 [10]: 18 µM; IC50 [10]: 76 µM; TGI [11]: 25; GI50 [11]: 10 µM; IC50 [11]: 66 µM; OS % on Day-70 [12]: 100%; PFS % on Day-70 [12]: 100%; TI % at Day-35 [12]: 62%; TGI [13]: 30; GI50 [13]: 22 µM; IC50 [13]: 56 µM
C[C@]12CC[C@H](OC(=O)Cc3ccc(N(CCCl)CCCl)cc3)C[C@@H]1CC[C@@H]1[C@@H]2CC[C@@]2(C)NC(=O)CC[C@@H]12 [ASE, 3beta-hydroxy-13alpha-amino-13,17-seco-5alpha-androstan-17-oic-13,17-lactam-[p-[bis (2-chloroethyl)amino]phenyl]acetate, reference compound] | 30 | 16 | 54 | 52 | 36 | 64 | 56 | 8 | 93 | 78 | 9 | > 100 | 50 | 0/6 | 24 | 267* % | 57 | 29 | 96 | 30 | TGI [9]: >100; GI50 [9]: 80 µM; IC50 [9]: > 100 µM; TGI [10]: 92; GI50 [10]: 45 µM; IC50 [10]: > 100 µM; TGI [11]: 47; GI50 [11]: 22 µM; IC50 [11]: 92 µM; OS % on Day-70 [12]: 80%; PFS % on Day-70 [12]: 40%; TI % at Day-35 [12]: 34%; TGI [13]: 49; GI50 [13]: 34 µM; IC50 [13]: 89 µM
C[C@]12CC[C@H](OC(=O)CCOc3ccc(N(CCCl)CCCl)cc3)CC1=CC(=O)N[C@@H]1[C@@H]2CC[C@]2(C)C(=O)CC[C@@H]12 [Compound 18] | 42 | 13 | 70 | 47 | 20 | 70 | 38 | 5 | 76 | 38 | 6 | 87 | 110 | 0/6 | 34 | 378* % | 46 | 21 | 79 | 85 | TGI [9]: 38; GI50 [9]: 20 µM; IC50 [9]: 69 µM; TGI [10]: 46; GI50 [10]: 24 µM; IC50 [10]: 68 µM; TGI [11]: 32; GI50 [11]: 14 µM; IC50 [11]: 72 µM; OS % on Day-70 [12]: 100%; PFS % on Day-70 [12]: 80%; TI % at Day-35 [12]: 44%; TGI [13]: 36; GI50 [13]: 23 µM; IC50 [13]: 70 µM
C[C@]12CC(=O)[C@H]3[C@@H](CCC4=CC(=O)NCC[C@@]43C)[C@@H]1CC[C@@H]2OC(=O)CCOc1ccc(N(CCCl)CCCl)cc1 [Compound 11] | 20 | 6 | 25 | 18 | 8 | 22 | 20 | 1.5 | 45 | 35 | 2 | 55 | 130 | 1/6 | 56 | 622* % | 68 | 25 | > 100 | 100 | TGI [9]: 31; GI50 [9]: 22 µM; IC50 [9]: 42 µM; TGI [10]: 32; GI50 [10]: 20 µM; IC50 [10]: 44 µM; TGI [11]: 59; GI50 [11]: 26 µM; IC50 [11]: 98 µM; OS % on Day-70 [12]: 100%; PFS % on Day-70 [12]: 100%; TI % at Day-35 [12]: 73%; TGI [13]: 44; GI50 [13]: 29 µM; IC50 [13]: 68 µM
C[C@]12CC(=O)N[C@H]3[C@@H](CCC4=CC(=O)NCC[C@@]43C)[C@@H]1CC[C@@H]2OC(=O)CCOc1ccc(N(CCCl)CCCl)cc1 [Compound 16] | 28 | 3 | 40 | 20 | 9 | 35 | 36 | 4 | 56 | 47 | 7 | 65 | 165 | 0/6 | 44 | 489* % | 36 | 15 | 65 | 140 | TGI [9]: 32; GI50 [9]: 12 µM; IC50 [9]: 50 µM; TGI [10]: 46; GI50 [10]: 20 µM; IC50 [10]: 70 µM; TGI [11]: 30; GI50 [11]: 10 µM; IC50 [11]: 55 µM; OS % on Day-70 [12]: 100%; PFS % on Day-70 [12]: 100%; TI % at Day-35 [12]: 55%; TGI [13]: 29; GI50 [13]: 16 µM; IC50 [13]: 51 µM
C[C@]12CC[C@@H]3c4ccc(OC(=O)CCOc5ccc(N(CCCl)CCCl)cc5)cc4CC[C@H]3[C@@H]1CCC(=O)N2 [Compound 6] | 20 | 6 | 44 | 40 | 30 | 56 | 28 | 5 | 50 | 30 | 5 | 50 | 100 | 0/6 | 36 | 400* % | 36 | 15 | 65 | 80 | TGI [9]: 66; GI50 [9]: 18 µM; IC50 [9]: 88 µM; TGI [10]: 76; GI50 [10]: 12 µM; IC50 [10]: > 100 µM; TGI [11]: 30; GI50 [11]: 10 µM; IC50 [11]: 55 µM; OS % on Day-70 [12]: 100%; PFS % on Day-70 [12]: 100%; TI % at Day-35 [12]: 56%; TGI [13]: 29; GI50 [13]: 16 µM; IC50 [13]: 51 µM
